Source: ChEMBL document CHEMBL1201862, “PubChem BioAssay data set” (2004)
Calls of active or inactive are those of the source.

Experiments:
[1] = enhancers of respiration in Yfh1-depleted yeast, dose response, Friedreich's ataxia, plus single-dose screen (AID 1465); type: functional;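 note: yeast depleted of Yfh1p frataxin homolog grown on glycerol needing respiration; WST-1 tetrazolium dye reduction as measure of cellular dehydrogenase metabolic activity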
[2] = control 3'UTR Renilla luciferase suppression, dose response, counter-screen for Shn3 inhibitor project, cell-based, Clone20-Shn3RL, cherry-picked (AID 624133); type: functional
[3] = biological target: T1, Histone-lysine N-methyltransferase NSD2 (Homo sapiens, UniProt O96028); type: biochemical
T1 sequence (O96028 whole entry): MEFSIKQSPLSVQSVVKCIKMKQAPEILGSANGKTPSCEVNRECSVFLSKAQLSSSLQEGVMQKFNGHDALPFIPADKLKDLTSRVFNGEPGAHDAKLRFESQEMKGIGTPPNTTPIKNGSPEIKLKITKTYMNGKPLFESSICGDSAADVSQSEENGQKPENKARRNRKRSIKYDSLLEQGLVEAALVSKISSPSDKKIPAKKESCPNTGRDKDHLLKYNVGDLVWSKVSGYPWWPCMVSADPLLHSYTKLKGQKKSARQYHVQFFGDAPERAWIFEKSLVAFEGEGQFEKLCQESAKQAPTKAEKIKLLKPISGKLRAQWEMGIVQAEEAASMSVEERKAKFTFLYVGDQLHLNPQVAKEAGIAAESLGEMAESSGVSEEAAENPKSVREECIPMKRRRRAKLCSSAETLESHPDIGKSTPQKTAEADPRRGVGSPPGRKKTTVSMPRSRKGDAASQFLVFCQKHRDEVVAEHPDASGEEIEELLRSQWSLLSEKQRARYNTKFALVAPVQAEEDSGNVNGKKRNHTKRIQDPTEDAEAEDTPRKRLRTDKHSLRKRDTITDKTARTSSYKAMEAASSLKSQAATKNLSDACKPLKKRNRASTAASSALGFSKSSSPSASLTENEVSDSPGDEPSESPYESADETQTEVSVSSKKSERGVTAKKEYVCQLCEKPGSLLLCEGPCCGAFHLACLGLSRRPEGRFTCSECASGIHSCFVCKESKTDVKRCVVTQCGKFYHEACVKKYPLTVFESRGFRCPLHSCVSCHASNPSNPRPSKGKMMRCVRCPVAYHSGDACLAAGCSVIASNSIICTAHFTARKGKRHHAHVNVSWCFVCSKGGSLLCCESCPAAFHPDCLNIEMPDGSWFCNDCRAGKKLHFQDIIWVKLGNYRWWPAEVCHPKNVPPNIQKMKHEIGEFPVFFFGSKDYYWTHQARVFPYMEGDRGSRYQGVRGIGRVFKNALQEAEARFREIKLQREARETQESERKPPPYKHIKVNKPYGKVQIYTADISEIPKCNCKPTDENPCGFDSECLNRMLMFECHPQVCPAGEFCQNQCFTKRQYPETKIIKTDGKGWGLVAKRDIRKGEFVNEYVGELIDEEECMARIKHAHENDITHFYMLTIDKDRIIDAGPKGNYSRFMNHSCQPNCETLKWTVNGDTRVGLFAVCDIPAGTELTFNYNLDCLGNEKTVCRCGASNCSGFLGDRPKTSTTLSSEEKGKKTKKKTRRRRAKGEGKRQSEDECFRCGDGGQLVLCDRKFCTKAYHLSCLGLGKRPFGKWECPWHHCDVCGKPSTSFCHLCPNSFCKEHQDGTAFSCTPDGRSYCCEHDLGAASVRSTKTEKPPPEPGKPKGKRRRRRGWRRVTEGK

[4] = biological target: T2, Ubiquitin-conjugating enzyme E2 N (Homo sapiens, UniProt P61088); type: functional;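 note: Dose-response confirmation in a TR-FRET assay detecting UBC13-driven polyubiquitin chain formation, inhibition measured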
T2 sequence (P61088 whole entry): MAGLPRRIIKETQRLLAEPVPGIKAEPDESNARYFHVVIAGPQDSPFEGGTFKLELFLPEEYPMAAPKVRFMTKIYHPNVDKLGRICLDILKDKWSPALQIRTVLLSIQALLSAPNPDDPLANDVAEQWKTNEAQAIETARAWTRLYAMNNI

[5] = biological target: T3, Mannose-6-phosphate isomerase (Homo sapiens, UniProt P34949); test: human PMI inhibitors, high substrate, primary screen, biochemical, fluorescence intensity, high mannose 6-phosphate (AID 1220)
T3 sequence (P34949 whole entry): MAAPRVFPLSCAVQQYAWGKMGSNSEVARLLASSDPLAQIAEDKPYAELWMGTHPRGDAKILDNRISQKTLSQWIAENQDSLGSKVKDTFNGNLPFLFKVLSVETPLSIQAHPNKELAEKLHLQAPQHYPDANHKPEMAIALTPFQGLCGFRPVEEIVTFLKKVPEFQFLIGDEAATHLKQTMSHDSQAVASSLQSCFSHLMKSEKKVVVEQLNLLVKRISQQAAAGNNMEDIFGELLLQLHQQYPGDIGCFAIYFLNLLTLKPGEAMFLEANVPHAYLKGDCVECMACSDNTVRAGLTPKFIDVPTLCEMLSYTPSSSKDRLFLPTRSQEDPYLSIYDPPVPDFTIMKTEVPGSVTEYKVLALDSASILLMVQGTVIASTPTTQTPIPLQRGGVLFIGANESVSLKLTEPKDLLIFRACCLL

Row | SMILES | AC50 [2] | AC50 [3] | IC50 [5] | also measured
1 | CCOC(=O)c1c(C)[nH]c2c1-c1ccccc1C(=O)C2=O | 1 µM (active) | 1.33 µM (active) | – | EC50 [1]: > 100 µM (active)
2 | CCOC(=O)C1=C(c2ccccc2)N=C(N)NC1c1ccc(OCc2ccc(Cl)cc2)c(OC)c1 (stereo not drawn) | – | – | – | IC50 [4]: > 20 µM (inactive)
3 | COc1ccc2c(c1)CCC(/C=N/c1ccc3c(c1)OCO3)=C2O | – | – | 15.6 µM (active) | –
4 | CCOC(=O)c1c(C)oc2c1c(/C=N/CCC(=O)O)c(O)c1ccccc12 | – | 1.87 µM (active) | > 50 µM (not active) | –
5 | CC(=O)NC(c1ccc2ccccc2c1)c1ccc2cccnc2c1O (stereo not drawn) | 0.51 µM (active) | – | – | –
